Experimental data from ChEMBL document CHEMBL6071181, “Discovery of ZLC491 as a Potent, Selective, and Orally Bioavailable CDK12/13 PROTAC Degrader” (J Med Chem, 2024).
The source made the active and inactive calls. The rule behind the calls is not given here.

Experiments:
[1] = Half-life in Sprague-Dawley rat at 2.5 mg/kg, iv measured after 24 hrs by LC/MS/MS analysis; assay type: ADME, organism-based; conditions: in vivo
[2] = Cmax in Sprague-Dawley rat at 2.5 mg/kg, iv measured after 24 hrs by LC/MS/MS analysis; assay type: ADME, organism-based; conditions: in vivo
[3] = AUC (0 to t) in Sprague-Dawley rat at 2.5 mg/kg, iv measured after 24 hrs by LC/MS/MS analysis; assay type: ADME, organism-based; conditions: in vivo
[4] = Cmax in Sprague-Dawley rat at 10 mg/kg, po measured after 24 hrs by LC/MS/MS analysis; assay type: ADME, organism-based; conditions: in vivo
[5] = AUC (0 to t) in Sprague-Dawley rat at 10 mg/kg, po measured after 24 hrs by LC/MS/MS analysis; assay type: ADME, organism-based; conditions: in vivo
[6] = Half-life in Sprague-Dawley rat at 10 mg/kg, po measured after 24 hrs by LC/MS/MS analysis; assay type: ADME, organism-based; conditions: in vivo
[7] = test system: MDA-MB-231; experiment: Antiproliferative activity against human MDA-MB-231 cells assessed as inhibition of cell growth at 0.0001 to 100 uM incubated for 5 days by CCK8 assay; assay type: functional, cell-based; conditions: dose 0.0001-100 µM, time 5.0 day
[8] = test system: HEK293; experiment: Antiproliferative activity against HEK293 cells assessed as inhibition of cell growth at 0.0001 to 100 uM incubated for 5 days by CCK8 assay; assay type: toxicity, cell-based; conditions: human, hek293, 120 h, dose 0.0001-100 µM, time 5 day
[9] = test system: HCC38; experiment: Antiproliferative activity against human HCC38 cells assessed as inhibition of cell growth at 0.0001 to 100 uM incubated for 5 days by CCK8 assay; assay type: functional, cell-based; conditions: dose 0.0001-100 µM, time 5.0 day
[10] = test system: MCF-10A; experiment: Antiproliferative activity against human MCF-10A cells assessed as inhibition of cell growth at 0.0001 to 100 uM incubated for 5 days by CCK8 assay; assay type: toxicity, cell-based; conditions: 120 h, dose 0.0001-100 µM, time 5 day
[11] = test system: MRC5; experiment: Antiproliferative activity against human MRC5 cells assessed as inhibition of cell growth at 0.0001 to 100 uM incubated for 5 days by CCK8 assay; assay type: toxicity, cell-based; conditions: mrc5, 120 h, dose 0.0001-100 µM, time 5 day
[12] = test system: MDA-MB-436; experiment: Antiproliferative activity against human MDA-MB-436 cells assessed as inhibition of cell growth at 0.0001 to 100 uM incubated for 5 days by CCK8 assay; assay type: functional, cell-based; conditions: dose 0.0001-100 µM, time 5.0 day
[13] = target: T1, Protein cereblon/Cyclin-dependent kinase 13 (Homo sapiens) (UniProt Q14004+Q96SW2); experiment: PROTAC activity at CRBN/CDK13 in human MDA-MB-231 cells assessed as induction of CDK13 degradation at 1 uM incubated for 10 hrs by immunoblotting analysis; assay type: cell-based
Target sequence in this assay (Q14004 whole entry, looked up): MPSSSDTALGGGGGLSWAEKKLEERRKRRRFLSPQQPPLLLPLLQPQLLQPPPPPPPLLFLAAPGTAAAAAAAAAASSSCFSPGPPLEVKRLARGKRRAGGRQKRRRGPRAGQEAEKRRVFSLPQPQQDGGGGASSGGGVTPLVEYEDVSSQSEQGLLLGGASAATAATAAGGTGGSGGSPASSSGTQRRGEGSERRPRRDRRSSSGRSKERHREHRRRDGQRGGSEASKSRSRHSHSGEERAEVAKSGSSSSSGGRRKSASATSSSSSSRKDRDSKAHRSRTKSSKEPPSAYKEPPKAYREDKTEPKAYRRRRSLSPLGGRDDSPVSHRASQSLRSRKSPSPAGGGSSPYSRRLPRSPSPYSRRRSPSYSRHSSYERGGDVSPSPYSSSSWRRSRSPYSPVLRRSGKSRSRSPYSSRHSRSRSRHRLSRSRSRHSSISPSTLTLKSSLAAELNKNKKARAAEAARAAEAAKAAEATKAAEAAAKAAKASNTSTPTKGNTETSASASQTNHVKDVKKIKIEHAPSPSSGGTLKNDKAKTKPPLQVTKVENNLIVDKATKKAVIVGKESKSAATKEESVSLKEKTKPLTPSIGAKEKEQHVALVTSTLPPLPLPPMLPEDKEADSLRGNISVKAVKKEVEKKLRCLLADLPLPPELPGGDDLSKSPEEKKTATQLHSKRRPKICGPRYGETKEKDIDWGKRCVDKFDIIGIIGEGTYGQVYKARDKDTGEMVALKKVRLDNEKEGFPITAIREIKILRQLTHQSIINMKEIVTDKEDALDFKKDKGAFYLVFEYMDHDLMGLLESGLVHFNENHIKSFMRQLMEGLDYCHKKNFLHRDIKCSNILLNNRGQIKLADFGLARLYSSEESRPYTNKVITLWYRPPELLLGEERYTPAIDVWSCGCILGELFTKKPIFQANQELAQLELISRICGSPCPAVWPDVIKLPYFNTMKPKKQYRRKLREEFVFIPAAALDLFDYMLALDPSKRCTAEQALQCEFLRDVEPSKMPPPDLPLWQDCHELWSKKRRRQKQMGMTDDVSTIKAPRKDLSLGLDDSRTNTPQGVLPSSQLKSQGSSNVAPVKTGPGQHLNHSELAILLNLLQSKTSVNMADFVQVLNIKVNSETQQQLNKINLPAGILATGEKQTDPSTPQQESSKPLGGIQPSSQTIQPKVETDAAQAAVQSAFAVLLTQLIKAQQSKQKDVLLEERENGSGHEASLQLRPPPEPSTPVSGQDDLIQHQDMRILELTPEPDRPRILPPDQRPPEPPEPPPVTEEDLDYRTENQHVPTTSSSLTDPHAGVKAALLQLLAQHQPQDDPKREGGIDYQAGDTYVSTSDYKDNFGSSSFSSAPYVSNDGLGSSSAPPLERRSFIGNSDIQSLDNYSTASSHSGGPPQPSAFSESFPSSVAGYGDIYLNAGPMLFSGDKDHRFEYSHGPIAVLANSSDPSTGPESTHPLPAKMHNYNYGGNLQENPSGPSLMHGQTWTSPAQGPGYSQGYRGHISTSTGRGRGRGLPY
Target sequence in this assay (Q96SW2 whole entry, looked up): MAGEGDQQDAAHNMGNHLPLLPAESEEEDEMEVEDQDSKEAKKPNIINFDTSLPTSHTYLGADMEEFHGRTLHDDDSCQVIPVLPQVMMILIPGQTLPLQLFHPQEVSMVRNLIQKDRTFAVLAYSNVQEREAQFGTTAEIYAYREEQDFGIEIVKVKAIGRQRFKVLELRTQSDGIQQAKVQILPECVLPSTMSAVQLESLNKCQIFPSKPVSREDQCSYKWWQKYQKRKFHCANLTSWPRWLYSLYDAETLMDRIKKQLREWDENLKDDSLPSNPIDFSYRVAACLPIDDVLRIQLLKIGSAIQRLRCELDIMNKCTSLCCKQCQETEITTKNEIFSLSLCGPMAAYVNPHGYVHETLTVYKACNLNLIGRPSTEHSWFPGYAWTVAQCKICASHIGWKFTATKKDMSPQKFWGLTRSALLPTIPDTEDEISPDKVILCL

[14] = target: T2, Protein cereblon/Cyclin-dependent kinase 12 (Homo sapiens) (UniProt Q9NYV4+Q96SW2); experiment: PROTAC activity at CRBN/CDK12 in human MDA-MB-231 cells assessed as induction of CDK12 degradation at 1 uM incubated for 10 hrs by immunoblotting analysis; assay type: cell-based
Target sequence in this assay (Q96SW2 whole entry, looked up): as above
Target sequence in this assay (Q9NYV4 whole entry, looked up): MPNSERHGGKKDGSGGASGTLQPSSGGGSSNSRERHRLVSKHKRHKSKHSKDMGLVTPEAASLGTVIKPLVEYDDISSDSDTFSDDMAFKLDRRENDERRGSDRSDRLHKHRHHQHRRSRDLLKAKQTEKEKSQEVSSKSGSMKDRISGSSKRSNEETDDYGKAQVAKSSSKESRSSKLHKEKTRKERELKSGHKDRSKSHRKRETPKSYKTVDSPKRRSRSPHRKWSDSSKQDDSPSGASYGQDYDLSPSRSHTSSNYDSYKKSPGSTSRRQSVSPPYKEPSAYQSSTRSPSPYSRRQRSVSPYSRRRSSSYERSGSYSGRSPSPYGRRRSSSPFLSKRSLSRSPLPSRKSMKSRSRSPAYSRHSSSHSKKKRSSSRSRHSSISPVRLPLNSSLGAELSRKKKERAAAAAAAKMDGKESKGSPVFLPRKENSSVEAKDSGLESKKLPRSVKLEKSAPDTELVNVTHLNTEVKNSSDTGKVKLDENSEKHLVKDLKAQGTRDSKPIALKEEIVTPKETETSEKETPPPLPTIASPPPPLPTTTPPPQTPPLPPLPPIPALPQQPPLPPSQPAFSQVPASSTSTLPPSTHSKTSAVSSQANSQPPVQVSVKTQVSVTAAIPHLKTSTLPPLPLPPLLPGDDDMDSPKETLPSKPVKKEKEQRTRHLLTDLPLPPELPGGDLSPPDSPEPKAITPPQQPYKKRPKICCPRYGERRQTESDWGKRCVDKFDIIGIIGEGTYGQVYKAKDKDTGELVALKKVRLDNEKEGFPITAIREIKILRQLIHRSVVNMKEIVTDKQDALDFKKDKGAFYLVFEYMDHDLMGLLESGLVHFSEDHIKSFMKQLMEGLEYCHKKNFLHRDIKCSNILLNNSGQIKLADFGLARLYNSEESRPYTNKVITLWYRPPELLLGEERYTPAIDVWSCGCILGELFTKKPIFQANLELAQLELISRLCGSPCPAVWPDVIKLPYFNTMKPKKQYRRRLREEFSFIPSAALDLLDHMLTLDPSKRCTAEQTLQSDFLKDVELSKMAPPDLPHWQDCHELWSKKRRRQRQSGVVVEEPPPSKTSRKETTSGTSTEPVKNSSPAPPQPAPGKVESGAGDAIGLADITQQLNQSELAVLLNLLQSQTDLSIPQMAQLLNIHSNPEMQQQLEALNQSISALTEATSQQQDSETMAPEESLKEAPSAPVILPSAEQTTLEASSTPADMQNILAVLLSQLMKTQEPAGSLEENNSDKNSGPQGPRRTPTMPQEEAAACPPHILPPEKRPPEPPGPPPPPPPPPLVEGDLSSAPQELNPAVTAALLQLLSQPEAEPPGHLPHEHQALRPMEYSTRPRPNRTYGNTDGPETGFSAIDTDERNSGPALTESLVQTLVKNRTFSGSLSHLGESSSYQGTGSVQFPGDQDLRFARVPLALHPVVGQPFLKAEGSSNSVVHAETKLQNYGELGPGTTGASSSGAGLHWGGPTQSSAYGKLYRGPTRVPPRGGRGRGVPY

[15] = target: T1, Protein cereblon/Cyclin-dependent kinase 13 (Homo sapiens); experiment: PROTAC activity at CRBN/CDK13 in human MDA-MB-231 cells assessed as induction of CDK13 degradation at 0.3 uM incubated for 15 hrs by immunoblotting analysis relative to control; assay type: cell-based
Target sequence in this assay (Q96SW2 whole entry, looked up, chain 1 of 2): as the sequence (Q96SW2 whole entry, looked up) above
Target sequence in this assay (Q14004 whole entry, looked up, chain 2 of 2): as the sequence (Q14004 whole entry, looked up) above

[16] = target: T2, Protein cereblon/Cyclin-dependent kinase 12 (Homo sapiens); experiment: PROTAC activity at CRBN/CDK12 in human MDA-MB-231 cells assessed as induction of CDK12 degradation at 0.3 uM incubated for 15 hrs by immunoblotting analysis relative to control; assay type: cell-based
Target sequence in this assay (Q96SW2 whole entry, looked up, chain 1 of 2): as the sequence (Q96SW2 whole entry, looked up) above
Target sequence in this assay (Q9NYV4 whole entry, looked up, chain 2 of 2): as the sequence (Q9NYV4 whole entry, looked up) above

## N#Cc1ccc(N[C@H]2CC[C@H](N(C(=O)NCc3ccccc3)c3ccc(N4CCN(C5CCN(c6ccc7c(c6)C(=O)N(C6CCC(=O)NC6=O)C7=O)CC5)CC4)cc3)CC2)nc1 (stereo partly specified)
[1]
  half-life: 2.38 h
[2]
  Cmax: 2590 ng/mL
[3]
  AUC(0-t) at 24 h: 4720 ng·h/mL
[4]
  Cmax: 308 ng/mL
[5]
  AUC(0-t) at 24 h: 3110 ng·h/mL
[6]
  half-life: 3.04 h

## CN1C(=O)CCC(N2C(=O)c3cc(F)c(N4CCC(N5CCN(c6ccc(N(C(=O)NCc7ccccc7)[C@H]7CC[C@H](Nc8ccc(C#N)cn8)CC7)cc6)CC5)CC4)cc3C2=O)C1=O (stereo partly specified)
[7]
  Activity: inactive
[8]
  Activity: Non-Toxic
[9]
  Activity: inactive
[10]
  Activity: Non-Toxic
[11]
  Activity: Non-Toxic
[12]
  Activity: inactive
[13]
  Activity: inactive
[14]
  Activity: inactive

## 3-benzyl-1-((1r,4r)-4-((5-cyanopyridin-2-yl)amino)cyclohexyl)-1-(4-(4-(1-(2-(2,6-dioxopiperidin-3-yl)-1,3-dioxoisoindolin-5-yl)azetidine-3-carbonyl)piperazin-1-yl)phenyl)urea
[15]
  Activity: 38%
[16]
  Activity: 35%
